Patent US10183943B2, “Heterocyclic compounds and their use in preventing or treating bacterial infections” (MUTABILIS, priority 2015, dated 2019)
Read-outs that look alike come from different tables or passages of the source.

Experiments:
TEM-1 = biological target: T1, TEM-1 (Escherichia coli, UniProt P62593); experiment: β-lactamase inhibitory activity, determination of IC50 (nitrocefin hydrolysis); assay type: biochemical
T1 construct: made in house; host or cells: E. coli

SHV-1 = biological target: T2, SHV-1 (Klebsiella pneumoniae, UniProt P0AD64); experiment: as above; assay type: biochemical
T2 construct: made in house; host or cells: E. coli
T2 sequence (P0AD64 22-286): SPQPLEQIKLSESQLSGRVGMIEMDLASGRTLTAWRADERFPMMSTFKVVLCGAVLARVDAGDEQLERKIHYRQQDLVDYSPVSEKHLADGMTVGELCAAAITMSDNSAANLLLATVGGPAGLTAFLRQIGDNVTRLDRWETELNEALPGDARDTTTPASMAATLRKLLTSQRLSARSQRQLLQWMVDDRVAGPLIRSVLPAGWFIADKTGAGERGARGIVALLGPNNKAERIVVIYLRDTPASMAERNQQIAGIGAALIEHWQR

CTX-M-15 = biological target: T3, CTX-M-15 (Escherichia coli, UniProt Q9EXV5); experiment: as above; assay type: biochemical; settings: class (A); nitrocefin 200 μM, 30 min pre-incubation; read-out: IC50 β-lactamase CTX-M-15
T3 construct: made in house; host or cells: E. coli
T3 sequence (Q9EXV5 entry or part of it): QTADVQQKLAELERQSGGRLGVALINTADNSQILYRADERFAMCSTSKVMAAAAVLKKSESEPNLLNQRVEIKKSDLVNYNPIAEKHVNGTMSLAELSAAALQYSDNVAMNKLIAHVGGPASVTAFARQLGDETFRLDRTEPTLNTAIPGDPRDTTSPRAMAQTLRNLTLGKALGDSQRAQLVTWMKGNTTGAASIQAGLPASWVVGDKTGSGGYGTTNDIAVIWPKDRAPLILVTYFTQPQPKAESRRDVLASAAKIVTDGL

KPC-2 = biological target: T4, KPC-2 (Klebsiella pneumoniae, UniProt Q9F663); experiment: as above; assay type: biochemical; settings: class (A); nitrocefin 200 μM, 30 min pre-incubation; read-out: IC50 β-lactamase KPC-2
T4 construct: made in house; host or cells: E. coli
T4 sequence (Q9F663 25-293 limits assumed): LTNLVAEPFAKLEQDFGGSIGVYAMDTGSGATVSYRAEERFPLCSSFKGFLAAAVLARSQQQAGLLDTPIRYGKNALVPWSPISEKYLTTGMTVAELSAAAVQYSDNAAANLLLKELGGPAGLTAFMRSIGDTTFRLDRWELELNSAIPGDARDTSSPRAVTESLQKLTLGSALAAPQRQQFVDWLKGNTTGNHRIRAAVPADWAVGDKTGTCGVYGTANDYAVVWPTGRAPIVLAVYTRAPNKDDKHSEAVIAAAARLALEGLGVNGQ

[1] = biological target: CMY-37 (Citrobacter freundii); experiment: as above; assay type: biochemical; settings: class (C); nitrocefin 200 μM, 30 min pre-incubation
CMY-37 (Citrobacter freundii), sequence (A0A9R8 21-381): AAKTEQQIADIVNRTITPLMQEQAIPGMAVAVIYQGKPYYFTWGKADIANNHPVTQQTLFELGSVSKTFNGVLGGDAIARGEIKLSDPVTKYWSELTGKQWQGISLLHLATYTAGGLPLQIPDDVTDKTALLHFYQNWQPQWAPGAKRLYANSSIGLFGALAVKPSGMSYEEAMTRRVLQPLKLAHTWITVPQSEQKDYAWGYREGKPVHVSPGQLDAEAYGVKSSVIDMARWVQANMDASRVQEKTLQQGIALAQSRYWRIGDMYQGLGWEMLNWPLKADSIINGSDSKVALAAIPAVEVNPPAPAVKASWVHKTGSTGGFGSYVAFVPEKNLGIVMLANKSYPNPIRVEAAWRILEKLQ

OXA-1 = biological target: T5, OXA-1 (Escherichia coli, UniProt P13661); experiment: as above; assay type: biochemical; settings: class (D); nitrocefin 200 μM, 30 min pre-incubation; read-out: IC50 β-lactamase OXA-1
T5 construct: made in house; host or cells: E. coli
T5 sequence (P13661 26-276): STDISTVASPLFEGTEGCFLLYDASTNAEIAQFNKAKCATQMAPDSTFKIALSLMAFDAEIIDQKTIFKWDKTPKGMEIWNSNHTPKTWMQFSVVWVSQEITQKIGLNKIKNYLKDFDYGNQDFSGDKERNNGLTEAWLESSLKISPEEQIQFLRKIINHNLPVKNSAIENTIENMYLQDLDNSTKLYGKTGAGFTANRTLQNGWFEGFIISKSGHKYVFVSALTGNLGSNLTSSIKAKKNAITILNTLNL

OXA-11 = biological target: T6, OXA-11 (Pseudomonas aeruginosa, UniProt Q06778); experiment: as above; assay type: biochemical
T6 construct: made in house; host or cells: E. coli
T6 sequence (Q06778 21-266): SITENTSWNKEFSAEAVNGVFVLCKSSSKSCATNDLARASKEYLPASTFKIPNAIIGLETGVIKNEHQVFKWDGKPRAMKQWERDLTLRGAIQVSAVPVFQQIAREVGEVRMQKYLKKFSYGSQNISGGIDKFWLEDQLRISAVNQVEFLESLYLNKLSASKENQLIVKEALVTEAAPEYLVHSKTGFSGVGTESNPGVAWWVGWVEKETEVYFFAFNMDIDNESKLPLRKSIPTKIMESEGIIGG

OXA-15 = biological target: T7, OXA-15 (Pseudomonas aeruginosa, UniProt Q51574); experiment: biochemical
T7 construct: made in house; host or cells: E. coli
T7 sequence (Q51574 22-275): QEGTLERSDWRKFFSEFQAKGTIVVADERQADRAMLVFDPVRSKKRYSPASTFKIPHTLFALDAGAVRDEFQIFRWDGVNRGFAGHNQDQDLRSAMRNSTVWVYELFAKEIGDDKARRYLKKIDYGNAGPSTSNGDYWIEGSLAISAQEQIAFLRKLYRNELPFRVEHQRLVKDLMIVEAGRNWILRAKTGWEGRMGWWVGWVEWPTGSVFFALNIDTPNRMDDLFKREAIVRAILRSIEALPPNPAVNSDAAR

OXA-48 = biological target: T8, OXA-48 (Klebsiella pneumoniae, UniProt Q6XEC0); experiment: β-lactamase inhibitory activity, determination of IC50 (nitrocefin hydrolysis); assay type: biochemical; settings: class (D); nitrocefin 200 μM, 30 min pre-incubation; read-out: IC50 β-lactamase OXA-48
T8 construct: made in house; host or cells: E. coli
T8 sequence (Q6XEC0 23-265 limits assumed): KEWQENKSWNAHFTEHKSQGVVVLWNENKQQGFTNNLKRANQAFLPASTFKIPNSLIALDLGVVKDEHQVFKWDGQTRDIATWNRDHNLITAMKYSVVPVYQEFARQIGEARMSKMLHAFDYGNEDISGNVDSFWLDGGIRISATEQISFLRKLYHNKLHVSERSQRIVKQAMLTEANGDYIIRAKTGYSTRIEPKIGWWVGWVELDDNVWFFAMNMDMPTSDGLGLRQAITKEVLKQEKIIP

E. cloacae P99 (AmpC) [2] = experiment: MIC of compounds alone, broth microdilution; assay type: cell-based; settings: strain P99 (E. cloacae)
How it was run: (§1)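 Broth microdilution per CLSI M7-A7: compounds alone, in DMSO, challenged with log-phase bacteria at 5×10^5 cfu/mL in cation-adjusted Mueller-Hinton broth. Plates incubated 16-20 h at 35° C in ambient air; MIC is the lowest concentration preventing visible growth.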

[3] = system: E. coli 131119 (TEM-1, OXA-48); experiment: MIC of compounds alone, broth microdilution; assay type: cell-based; settings: strain 131119 (E. coli)
How it was run: as §1

[4] = system: E. coli 190317 (TEM-1, SHV-12, CTX-M-15, OXA-1); experiment: MIC of compounds alone, broth microdilution; assay type: cell-based; settings: strain 190317 (E. coli)
How it was run: as §1

E. coli RGN238 (OXA-1) = experiment: MIC of compounds alone, broth microdilution; assay type: cell-based; settings: strain RGN238 (E. coli)
How it was run: as §1

[5] = system: K. pneumoniae 6299 (TEM-1, SHV-11, OXA-163); experiment: MIC of compounds alone, broth microdilution; assay type: cell-based; settings: strain 6299 (K. pneumoniae)
How it was run: as §1

[6] = system: K. pneumoniae BAA-1898 (TEM-1, SHV-11, SHV-12, KPC-2); experiment: MIC of compounds alone, broth microdilution; assay type: cell-based; settings: strain BAA-1898 (K. pneumoniae)
How it was run: as §1

[7] = system: P. aeruginosa CIP107051 (TEM-24); experiment: MIC of compounds alone, broth microdilution; assay type: cell-based; settings: strain CIP107051 (P. aeruginosa)
How it was run: as §1

E. cloacae P99 (AmpC) [8] = experiment: MIC of ceftazidime (CAZ) in combination with compounds at 4 μg/mL, broth microdilution; assay type: cell-based; settings: strain P99; MIC of CAZ with compound fixed at 4 μg/mL
Protocol: (§2) Method 2: MIC of Compounds and Synergy with Ceftazidime Against Bacterial Isolates (Table 2 and 3)
(§3) Compounds of the present invention were assessed against genotyped bacterial strains alone or in combination with the β-lactam ceftazidime (CAZ). In the assays, MICs of said compounds, or of ceftazidime at fixed concentrations of said compounds were determined by the broth microdilution method according to the Clinical Laboratory Standards Institute (CLSI-M7-A7). Briefly, compounds alone according to the invention were prepared in DMSO and spotted (2 μL each) on sterile polystyrene plates (Corning, 3788). Compounds and ceftazidime dilutions were prepared in DMSO and spotted (1 μL each) on sterile polystyrene plates (Corning, 3788). Log phase bacterial suspensions were adjusted to a final density of 5×10^5 cfu/mL in cation-adjusted Mueller-Hinton broth (Becton-Dickinson) and added to each well (98 μL). Microplates were incubated for 16-20 h at 35° C. in ambient air. The MIC of the compounds was defined as the lowest concentration of said compounds that prevented bacterial growth as read by visual inspection. The MIC of ceftazidime at each compound concentration was defined as the lowest concentration of ceftazidime that prevented bacterial growth as read by visual inspection.

[9] = system: K. pneumoniae 6299 (TEM-1, SHV-11, OXA-163); experiment: as above; assay type: cell-based; settings: strain 6299; MIC of CAZ with compound fixed at 4 μg/mL
Protocol: as §2, §3

[10] = system: K. pneumoniae BAA-1898 (TEM-1, SHV-11, SHV-12, KPC-2); experiment: as above; assay type: cell-based; settings: strain BAA-1898; MIC of CAZ with compound fixed at 4 μg/mL
Protocol: as §2, §3

[11] = system: P. aeruginosa CIP107051 (TEM-24); experiment: as above; assay type: cell-based; settings: strain CIP107051; MIC of CAZ with compound fixed at 4 μg/mL
Protocol: as §2, §3

[12] = system: E. coli 190317 (TEM-1, SHV-12, CTX-M-15, OXA-1); experiment: microbe, parasite or virus in culture; assay type: cell-based; settings: strain 190317; MIC of CAZ with compound fixed at 4 μg/mL
Protocol: as §2, §3

AmpC (P99) = AmpC (P99) (Enterobacter cloacae, UniProt P05364); experiment: β-lactamase inhibitory activity, determination of IC50 (nitrocefin hydrolysis)
AmpC (P99), sequence (P05364 21-381): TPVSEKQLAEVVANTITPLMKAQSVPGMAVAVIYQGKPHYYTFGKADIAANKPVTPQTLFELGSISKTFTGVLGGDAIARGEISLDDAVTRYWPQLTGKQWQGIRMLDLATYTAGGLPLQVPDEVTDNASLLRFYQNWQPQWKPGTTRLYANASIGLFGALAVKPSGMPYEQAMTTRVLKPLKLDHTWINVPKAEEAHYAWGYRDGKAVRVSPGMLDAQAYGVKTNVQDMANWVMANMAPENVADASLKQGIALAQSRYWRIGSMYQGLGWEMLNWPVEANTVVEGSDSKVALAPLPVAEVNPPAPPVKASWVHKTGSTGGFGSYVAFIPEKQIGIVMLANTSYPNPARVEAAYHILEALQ

AmpC P. aeruginosa = AmpC P. aeruginosa (Pseudomonas aeruginosa, UniProt P24735); experiment: as above
AmpC P. aeruginosa, sequence (P24735 27-397): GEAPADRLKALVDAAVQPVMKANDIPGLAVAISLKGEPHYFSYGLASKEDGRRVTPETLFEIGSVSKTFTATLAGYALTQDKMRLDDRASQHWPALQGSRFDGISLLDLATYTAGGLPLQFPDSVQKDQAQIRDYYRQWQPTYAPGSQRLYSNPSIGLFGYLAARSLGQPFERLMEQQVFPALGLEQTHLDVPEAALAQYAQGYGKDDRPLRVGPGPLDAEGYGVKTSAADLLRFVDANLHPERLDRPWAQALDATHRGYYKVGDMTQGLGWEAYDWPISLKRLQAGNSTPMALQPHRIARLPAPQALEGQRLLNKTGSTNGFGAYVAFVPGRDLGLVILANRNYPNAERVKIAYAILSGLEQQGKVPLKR

[13] = system: E. cloacae 260508 (TEM-1, CTX-M-15); experiment: MIC of compounds alone, broth microdilution; assay type: cell-based; settings: Enterobacter cloacae, read-out: MIC compounds of the invention alone
How it was run: as §1

[14] = system: E. cloacae UFR51 (SHV-12, IMP-8); experiment: MIC of compounds alone, broth microdilution; assay type: cell-based; settings: Enterobacter cloacae; strain UFR51 (E. cloacae); read-out: MIC compounds of the invention alone
How it was run: as §1

[15] = system: E. cloacae UFR85 (TEM-1, CTX-M-15, AmpC); experiment: MIC of compounds alone, broth microdilution; assay type: cell-based; settings: Enterobacter cloacae, read-out: MIC compounds of the invention alone
How it was run: as §1

[16] = system: E. coli UFR18 (CTX-M-15, OXA-204); experiment: MIC of compounds alone, broth microdilution; assay type: cell-based; settings: Escherichia coli; strain UFR18 (E. coli); read-out: MIC compounds of the invention alone
How it was run: as §1

[17] = system: E. coli UFR32 (TEM-1, VEB-1, OXA-10); experiment: MIC of compounds alone, broth microdilution; assay type: cell-based; settings: Escherichia coli; strain UFR32 (E. coli); read-out: MIC compounds of the invention alone
How it was run: as §1

[18] = system: E. coli UFR61O (TEM-1, KPC-2); experiment: MIC of compounds alone, broth microdilution; assay type: cell-based; settings: Escherichia coli; strain UFR61O (E. coli); read-out: MIC compounds of the invention alone
How it was run: as §1

[19] = system: E. coli UFR74 (SHV-1, DHA-1); experiment: MIC of compounds alone, broth microdilution; assay type: cell-based; settings: Escherichia coli; strain UFR74 (E. coli); read-out: MIC compounds of the invention alone
How it was run: as §1

[20] = system: K. oxytoca UFR21 (TEM-1, CTX-M-15, OXA-48); experiment: MIC of compounds alone, broth microdilution; assay type: cell-based; settings: Klebsiella oxytoca, read-out: MIC compounds of the invention alone
How it was run: as §1

[21] = system: K. pneumoniae UFR24 (TEM-1, SHV-2, SHV-11, OXA-1, OXA-48, OXA-47); experiment: MIC of compounds alone, broth microdilution; assay type: cell-based; settings: Klebsiella pneumoniae; strain UFR24 (K. pneumoniae); read-out: MIC compounds of the invention alone
How it was run: as §1

[22] = system: K. pneumoniae UFR39 (CTX-M-15, NDM-1); experiment: MIC of compounds alone, broth microdilution; assay type: cell-based; settings: Klebsiella pneumoniae; strain UFR39 (K. pneumoniae); read-out: MIC compounds of the invention alone
How it was run: as §1

[23] = system: K. pneumoniae UFR77 (CMY-2); experiment: MIC of compounds alone, broth microdilution; assay type: cell-based; settings: Klebsiella pneumoniae; strain UFR77 (K. pneumoniae); read-out: MIC compounds of the invention alone
How it was run: as §1

[24] = system: E. cloacae UFR51 (SHV-12, IMP-8); experiment: MIC of ceftazidime (CAZ) in combination with compounds at 4 μg/mL, broth microdilution; assay type: cell-based; settings: strain UFR51; MIC of CAZ with compound fixed at 4 μg/mL
Protocol: as §2, §3

[25] = system: E. coli UFR41 (TEM-1, CTX-M-15, CMY-2, OXA-1, NDM-4); experiment: as above; assay type: cell-based; settings: strain UFR41; MIC of CAZ with compound fixed at 4 μg/mL
Protocol: as §2, §3

[26] = Escherichia coli, read-out: MIC compounds of the invention alone

T1 sequence (P62593 24-286 limits assumed): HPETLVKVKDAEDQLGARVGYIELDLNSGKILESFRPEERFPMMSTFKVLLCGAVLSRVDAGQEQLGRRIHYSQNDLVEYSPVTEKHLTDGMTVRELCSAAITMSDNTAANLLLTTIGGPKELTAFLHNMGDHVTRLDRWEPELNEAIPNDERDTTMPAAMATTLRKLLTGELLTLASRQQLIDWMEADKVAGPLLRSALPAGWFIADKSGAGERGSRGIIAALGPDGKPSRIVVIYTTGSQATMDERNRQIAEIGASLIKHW

COC(=O)c1ncsc1C1=CCN2CC1N(OS(=O)(=O)[O-])C2=O.[Na+] (stereo not shown) [Example 22, Sodium [4-(4-(2-methoxy-2-oxo-methyl)-thiazol-5-yl)-7-oxo-1,6-diazabicyclo[3.2.1]oct-3-en-6-yl] sulfate]
IC50 (TEM-1; class (A), nitrocefin 200 μM, 30 min pre-incubation, read-out: IC50 β-lactamase TEM-1): 5 nM
IC50 (SHV-1; class (A), nitrocefin 200 μM, 30 min pre-incubation, read-out: IC50 β-lactamase SHV-1): 19 nM
IC50 (CTX-M-15): 6.5 nM
IC50 (KPC-2): 340 nM
IC50 [1]: 84 nM
IC50 (OXA-1): 68 nM
IC50 (OXA-11; class (D), nitrocefin 200 μM, 30 min pre-incubation, read-out: IC50 β-lactamase OXA-11): 370 nM
IC50 (OXA-15; class (D), nitrocefin 200 μM, 30 min pre-incubation, read-out: IC50 β-lactamase OXA-15): 12 nM
IC50 (OXA-48): 3.9 nM
MIC compounds of the invention alone (E. cloacae P99 (AmpC) [2]): >32 µg/mL
MIC compounds of the invention alone [3]: >32 µg/mL
MIC compounds of the invention alone [4]: >32 µg/mL
MIC compounds of the invention alone (E. coli RGN238 (OXA-1)): >32 µg/mL
MIC compounds of the invention alone [5]: >32 µg/mL
MIC compounds of the invention alone [6]: >32 µg/mL
MIC compounds of the invention alone [7]: >32 µg/mL
MIC combination of CAZ and compounds of the invention at 4 μg/mL (E. cloacae P99 (AmpC) [8]): 128 µg/mL
MIC combination of CAZ and compounds of the invention at 4 μg/mL [9]: 128 µg/mL
MIC combination of CAZ and compounds of the invention at 4 μg/mL [10]: 128 µg/mL
MIC combination of CAZ and compounds of the invention at 4 μg/mL [11]: >128 µg/mL
MIC combination of CAZ and compounds of the invention at 4 μg/mL [12]: 16 µg/mL
IC50 (AmpC (P99); read-out: IC50 β-lactamase AmpC (P99), class (C), nitrocefin 200 μM, 30 min pre-incubation): 160 nM
IC50 (AmpC P. aeruginosa; read-out: IC50 β-lactamase AmpC (PAE), class (C), nitrocefin 200 μM, 30 min pre-incubation): 5500 nM

O=C1N2CC(c3cccnc3)=CC(C2)N1OS(=O)(=O)[O-].[Na+] (stereo not shown) [Example 41, Sodium [3-(3-pyridyl)-7-oxo-1,6-diazabicyclo[3.2.1]oct-3-en-6-yl]sulfate]
IC50 (TEM-1): 1.8 nM
IC50 (SHV-1): 3.6 nM
IC50 (CTX-M-15): 2.6 nM
IC50 (KPC-2): 9 nM
IC50 (OXA-1): 1400 nM
IC50 (OXA-11): 840 nM
IC50 (OXA-15): 150 nM
IC50 (OXA-48): 1.4 nM
MIC [13]: 16 µg/mL
MIC (E. cloacae P99 (AmpC) [2]; Enterobacter cloacae, read-out: MIC compounds of the invention alone): 8 µg/mL
MIC [14]: 4 µg/mL
MIC [15]: 16 µg/mL
MIC [3, 26]: 4 µg/mL
MIC (E. coli RGN238 (OXA-1); [26]): 32 µg/mL
MIC [16]: 4 µg/mL
MIC [17]: 8 µg/mL
MIC [18]: 16 µg/mL
MIC [19]: 16 µg/mL
MIC [20]: 16 µg/mL
MIC ([5]; Klebsiella pneumoniae, read-out: MIC compounds of the invention alone): 16 µg/mL
MIC ([6]; Klebsiella pneumoniae, BAA1898, read-out: MIC compounds of the invention alone): 8 µg/mL
MIC [21]: 16 µg/mL
MIC [22]: 4 µg/mL
MIC [23]: 8 µg/mL
MIC ([7]; Pseudomonas aeruginosa, read-out: MIC compounds of the invention alone): > 32 µg/mL
MIC combination of CAZ and compounds of the invention at 4 μg/mL [24]: <0.25 µg/mL
MIC combination of CAZ and compounds of the invention at 4 μg/mL [25]: <0.25 µg/mL
IC50 (AmpC (P99)): 40 nM
IC50 (AmpC P. aeruginosa): 190 nM
